Assay results from patent publication US20160061843A1, “BIOMARKER ASSAY” (Respiratory Clinical Trials Ltd, priority 2014, published 2016).

How the values were obtained:
Format in all cases: cell-based, human
[1] = tested on: intracellular pSTAT1 in macrophages; test: Flow cytometry of IFNγ-induced STAT1 phosphorylation in induced sputum macrophages from COPD subjects; conditions: IFNγ 10 ng/ml
From the text: Sputum samples were collected from 15 COPD subjects on three or four repeat visits (i.e., three to four samples per subject). In each case, the subject inhaled 3% (w/v) saline solution mist through the mouthpiece of an ultrasonic nebulizer for five minutes. Sputum mobilization techniques were utilized to assist with the production of a sputum sample, such as diaphragmatic breathing, huffs, percussion, vibrations and positive expiratory pressure techniques. The subject was asked to attempt to cough sputum into a sputum collection pot. If the FEV1 fell by <10% after inhalation of 3% (w/v) saline, the participant was asked to inhale the next saline concentration (4% w/v) and repeat the procedure detailed above. Again if the FEV1 fell by <10% after inhalation of 4% (w/v) saline, the participant was asked to inhale the next saline concentration (5% w/v) and repeat the procedure detailed above. The sputum collected after 15 minutes of nebulization (i.e., 3×5 minutes) was processed in the laboratory for flow cytometric analysis. Induced sputum was kept on ice and processed as soon as possible but no more than two hours from collection. Sputum plugs were selected for processing and suitably transferred into a centrifuge tube. The volume of the selected sputum sample was noted and an equal volume of DPBS added. To liquefy the sample Sputolysin® was added to a final concentration of 0.05% (w/v). The tube was placed on a plate shaker (300 rpm) for 30 minutes at room temperature to disperse the cells. After 30 minutes the sample was mixed gently with a Pasteur pipette and left to shake for a further 15 minutes. The sample was centrifuged at 1200 rpm for 10 minutes at room temperature. Sputum supernatant was collected and used to measure cytokines/chemokines of interest. […] The supernatant was removed and the cell pellet resuspended in 500 μl staining buffer ready for flow cytometric analysis. […] Levels of STAT phosphorylation in the macrophage population were determined by taking the MFI of the stimulated sample and dividing by the MFI for the non-stimulated sample.

[2] = tested on: intracellular pSTAT3 in sputum macrophages; test: Flow cytometry of IFNγ-induced STAT3 phosphorylation in induced sputum macrophages from COPD subjects; conditions: % stimulation = stimulated MFI/non-stimulated MFI×100; IFNγ 10 ng/ml
Method: FIG. 10 is a bar graph showing STAT3 phosphorylation in sputum macrophages following stimulation with IFNγ in the absence or presence of increasing concentrations of a MK2 inhibitor. % stimulation was calculated as stimulated MFI/non-stimulated MFI×100.
The methods of Example 1 were repeated exactly, but this time measuring intracellular STAT3 phosphorylation using an Alexa Fluor® 647 conjugated anti-pSTAT3 antibody. In addition, a MK2 inhibitor was tested instead of a JAK inhibitor compound. Increasing concentrations of inhibitor were tested (1 μM, 10 μM and 100 μM); the same conditions otherwise applied.

[3] = tested on: intracellular pSTAT1(Y701) in macrophages; test: Flow cytometry of IFNγ-induced STAT1(Y701) phosphorylation in induced sputum macrophages from smokers; conditions: unstimulated MFI 345.5; sputum from two smokers
Method: FIG. 11A is a line graph showing the stimulation of STAT1(Y701) phosphorylation in macrophages and neutrophils from induced sputum by IFNγ, and inhibition of such phosphorylation after pre-incubation with increasing concentrations of a MK2 inhibitor followed by IFNγ stimulation. FIG. 11B is a bar graph showing phosphorylation of STAT1 (Y701) in macrophages in the presence and absence of the MK2 inhibitor expressed as % stimulation. % stimulation was calculated as stimulated MFI/non-stimulated MFI×100.
Induced sputum samples were obtained as described in Example 1. In this study, however, the subjects were smokers. Sputum was collected from two subjects.
Sputum samples were processed as described in Example 1.
Inducing STAT1(Y701) Phosphorylation STAT phosphorylation was induced as described in Example 1. In this study, however, the inhibitor compound was a MK2 inhibitor […].
Samples were stained as described in Example 1. However, in this study, and in order to specifically detect STAT1(Y701) phosphorylation, an Alexa Fluor® 647 conjugated anti-pSTAT1(Y701) antibody was used.
Levels of STAT1(Y701) phosphorylation in the macrophage population were determined by taking the MFI of the stimulated sample and dividing by the MFI for the non-stimulated sample. A value of greater than one (>1) indicated positive staining.

C[C@@H]1CCN(C(=O)N2CCCC2)C[C@@H]1N(C)c1ncnc2[nH]ccc12 [JAK inhibitor, PF 956980]
inhibition of STAT1 phosphorylation (in words) ([1]; inhibitor final concentration 10^−5 M): complete inhibition
MFI of intracellular pSTAT1 in macrophages after incubation with IFNγ+JAK inhibitor ([1]; inhibitor final concentration 10^−5 M, unstimulated MFI 120.7±23.92, stimulated MFI 196.7±33.97): 118.3±24.44

IFNγ: cytokine used as stimulator of STAT phosphorylation
increase of intracellular pSTAT3 in sputum macrophages following incubation with IFNγ [2]: 100%
MFI of intracellular pSTAT1 in macrophages after incubation with IFNγ ([1]; 20 min, 37° C., unstimulated MFI 120.7±23.92, 15 COPD subjects): 196.7±33.97
MFI of intracellular pSTAT1(Y701) in macrophages stimulated with IFNγ [3]: 511
